# From patent publication US20030144194A1, “Cancer treatment and prognosis” (priority 2000, published 2003)
# What was measured:
# [1] = test system: HES-1; experiment: Western blot of HES-1 protein in nuclear extracts of breast cancer cell lines; type: cell-based; settings: for effect on 17β-estradiol-mediated down regulation of HES-1 protein: antiestrogen together with 17β-estradiol, FIG. 1C
# Method: FIG. 1(B) Regulation of HES-1 by 17β-estradiol in breast cancer cell lines; 50 μg of nuclear extract protein was used;
# (§1) T47D cells were cultured in a 1:1 mixture of Hams F 12 and DME with 10% fetal bovine serum, MCF-7, MDA-MB-231 and COS-7 cells were cultured in DME with 10% fetal bovine serum. Before experiments with estrogen, the media were switched and phenol red free and DCC charcoal treated with serum were used. Culture conditions were set at 37° C., 5% CO2 and 100% humidity. For creation of tetracycline inducible stably transfected clones the tet-regulated expression system from Bibco BRL was used. A puromycin resistance gene was cloned into pTet TAk. T47D cells were then transfected with lipofectin (GibcoBRL) according to the manufacturer's instructions. Transfectants were selected with puromycin at 1 μg/ml. […] Transfectants were selected using G418 (Calbiochem) at 500 μg/ml. Cells lines stably transfected with tetracycline regulated expression constructs were grown in the presence of 1 μg/ml of tetracycline. At the time of induction the medium was removed and the cells were washed with PBS two times before adding new medium without tetracycline.
# Nuclear extract and RNA preparation was carried out according to the protocol by Schreiber et al (E. Schreiber, et al., Nucleic Acids Res 17, 6419 (1989)) except that PBS was used instead of TBS and the following inhibitors were added: leupeptin at 1 μg/ml, PMSF at 0.2 mM, […] Na3VO4, 1 mM NaPPi, 1 mM NaF, 100 μM Na2MO4 (all from Sigma). Nuclear extracts were prepared from cells grown to a confluency of 60%-70% on a 150 mm culture dish. Protein content was determined by Bradford assay (BioRad).
# (§2) Two peptides with identical sequence parts of HES-1 protein were synthesised and simultaneously injected into one rabbit (Genosys). The peptides were […] […] and […]. For Western blots, 100 μg of nuclear extract was separated on a 12% SDS-PAGE. Western blot analysis was performed according to standard protocols (Harlow and Lane, E. Harlow, and D. Lane, Cold Spring Harbour Laboratory Press, Cold Spring Harbour, N.Y., (1988)). HES-1 antibody was used at a dilution of 1:1000. The PCNA (C-10) antibody was from Santa Cruz and used at 1:1000. Donkey, anti-rabbit and sheep anti-mouse IgG HRP conjugated antibody (Amersham) were used at 1:10000. Antibody binding was visualised using ECL, Super Signal (Pierce).
# [2] = test system: histone acetylation; settings: MCF-7 breast cancer cells, Pasqualini et al (1989); cited from earlier work
# [3] = test system: proliferating cell nuclear antigen (PCNA); experiment: PCNA Western blot on nuclear extracts of tet-regulated FLAG HES-1 T47D cells; type: cell-based
# Method: (§3) FIG. 2 illustrates a proliferation assay T47D cells stably transfected with tetracycline regulated FLAG HES-1 expression. (A) Relative proliferation of two different clones HES-1(1) and HES-1(2) with inducible FLAG HES-1 expression, and two control clones. Tetracycline at 1 μg/ml and 17β-estradiol at 10 nM were used when stated. Data represents an average of six independent measurements. (B) Western blot of endogenous HES-1 and FLAG HES-1 expression in HES-1(1) and HES-1(2) cell lines with antibody against HES-1. PCNA Western blot on same extracts 50 μg of nuclear protein was used;
# as §2
# [4] = test system: T47D breast cancer cells; experiment: Proliferation assay, T47D cells stably transfected with tetracycline regulated FLAG HES-1 expression; type: cell-based
# Method: as §3, §1
# A proliferation determination kit from BioThema (A. Lundin, Methods Enzymol 305, 346-370 (1999)). The kit is based on measuring ATP and since the ATP level is constant between cells this can be used to evaluate the number of cells. The cells were grown on 24 well plates at 1000 cells/well. Treatment with hormone was in phenol red-free medium supplemented with 10% DCC treated fetal calf serum. […] Luciferase activity was measured using a Berthold luminometer.
# [5] = test system: HES-1; experiment: All-trans retinoic acid effect on 17β-estradiol-dependent down regulation of HES-1 expression in MCF-7 cells (Western blot); type: cell-based; settings: 1 μM all-trans retinoic acid, 17β estradiol 0.1 and 1 nM, 3 days
# Method: MCF-7 cells were grown on 150 mm plates to 70% confluency in DME medium supplemented with 10% FBS. The medium was then changed to phenolAred free DME supplemented with DCC treated FBS to which 17β estradiol 0.1 and 1 nM respectively and 1 μM of all-trans retinoic acid was added individually or in combination. The plates were then incubated for 3 days in a humidified incubator at 37° C. and 5% CO2. Nuclear extract was produced according to Schreiber et al (E. Schreiber et al (1989) Nucleic Acids Res 17: 6419). 50 μg of this nuclear extract was then run on SDS-PAGE and blotted over to nitrocellulose membrane Hybond C super (Amersham). HES-1 protein was then detected using HES-1 antibody.
# [6] = test system: CMV promoter; settings: L. D. Dion et al., Virology 231 (1997); cited from earlier work
# [7] = molecular target: T1, ERβ (Homo sapiens, UniProt Q92731); experiment: ERE TATA LUC reporter in COS-7 cells transfected with ERβ; type: cell-based; settings: FIG. 9
# T1 construct: FLAG; expressed in transfected cells; host or cells: COS-7
# Excerpt: FIG. 9. Transient transfection of COS-7 cells using the ERE reporter vector ERE TATA LUC and expression vectors FLAG […] and FLAG HES-1 and treated with E2 and the histone deacetylase inhibitor Tricostatin A (TSA).
# [8] = molecular target: T2, estrogen receptor α (ERα) (Homo sapiens, UniProt P03372); experiment: ERE TATA LUC reporter in COS-7 cells transfected with ERα; type: cell-based
# T2 construct: FLAG; expressed in transfected cells; host or cells: COS-7
# T2 sequence (P03372 1-595): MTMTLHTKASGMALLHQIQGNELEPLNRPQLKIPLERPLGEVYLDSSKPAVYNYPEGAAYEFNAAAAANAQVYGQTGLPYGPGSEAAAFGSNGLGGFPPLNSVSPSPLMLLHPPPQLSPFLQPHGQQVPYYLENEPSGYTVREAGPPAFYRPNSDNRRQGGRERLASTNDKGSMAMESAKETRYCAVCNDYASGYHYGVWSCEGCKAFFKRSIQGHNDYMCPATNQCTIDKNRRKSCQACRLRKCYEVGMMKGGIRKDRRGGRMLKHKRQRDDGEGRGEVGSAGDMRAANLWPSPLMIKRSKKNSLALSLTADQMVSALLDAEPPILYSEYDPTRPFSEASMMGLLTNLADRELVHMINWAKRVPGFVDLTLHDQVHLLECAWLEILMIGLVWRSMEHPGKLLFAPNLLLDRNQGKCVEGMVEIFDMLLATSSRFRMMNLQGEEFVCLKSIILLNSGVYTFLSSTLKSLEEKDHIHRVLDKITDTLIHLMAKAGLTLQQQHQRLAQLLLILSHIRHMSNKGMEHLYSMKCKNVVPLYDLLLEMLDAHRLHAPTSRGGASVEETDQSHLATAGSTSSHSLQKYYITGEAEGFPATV
# Method: FIG. 5. Transfection of COS-7 cells with 3X ERE TATA LUC 1 μg and 100 ng of pcDNA3 FLAG ERα.
# FIG. 8. Transient transfection of COS-7 cells using the ERE reporter vector ERE TATA LUC and expression vectors FLAG ERα and FLAG HES-1 and treated with E2 and the histone deacetylase inhibitor Trichostatin A (TSA).
# Human ERα was epitope tagged with the artificial “FLAG” epitope using PCR cloning. The VP16 activation domain was fused to the N-tenninus of rat HES-1.
# T1 sequence (Q92731 whole entry, species assumed): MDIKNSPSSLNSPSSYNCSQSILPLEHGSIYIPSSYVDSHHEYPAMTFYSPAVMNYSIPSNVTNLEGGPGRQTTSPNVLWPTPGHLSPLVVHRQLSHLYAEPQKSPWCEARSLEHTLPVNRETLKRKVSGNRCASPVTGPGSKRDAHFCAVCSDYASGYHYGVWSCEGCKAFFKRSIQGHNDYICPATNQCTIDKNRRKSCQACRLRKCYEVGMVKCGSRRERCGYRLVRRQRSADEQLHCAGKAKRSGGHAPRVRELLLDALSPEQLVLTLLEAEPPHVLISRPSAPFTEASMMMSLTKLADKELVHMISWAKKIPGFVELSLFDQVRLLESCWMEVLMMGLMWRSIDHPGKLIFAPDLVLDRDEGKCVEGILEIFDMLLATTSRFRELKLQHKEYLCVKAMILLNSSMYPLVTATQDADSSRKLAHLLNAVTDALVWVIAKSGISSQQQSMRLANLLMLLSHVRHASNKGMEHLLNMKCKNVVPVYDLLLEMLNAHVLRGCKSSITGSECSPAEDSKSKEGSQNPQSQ
compound,measurement,setting,value
CC/C(=C(\c1ccc(O)cc1)c1ccc(OCCN(C)C)cc1)c1ccccc1 [4OH tamoxifen],effect on 17β-estradiol-mediated down regulation of HES-1 protein,[1],prevented
C[C@]12CC[C@@H]3c4ccc(O)cc4CC[C@H]3[C@@H]1CC[C@@H]2O [17β-estradiol],expressed protein levels of HES-1,[1]; MCF-7 breast cancer cells,suppress
same,17β-estradiol-mediated suppression of HES-1,[1]; MDA-MB-231 breast cancer cells (lack ERα),lack of 17β-estradiol-mediated suppression
same,expressed protein levels of HES-1,[1]; T47D breast cancer cells,suppress
same,histone acetylation,[2],decreases
same,regulation of proliferation marker PCNA,[3]; absence of exogenous FLAG-HES-1 expression,upregulated twofold
same,regulation of proliferation marker PCNA,[3]; presence of exogenous FLAG-HES-1,no regulation
same,stimulation of proliferation,"[4]; absence of tetracycline (with induced HES-1 expression), 17β-estradiol 10 nM",no 17β-estradiol stimulated proliferation
same,stimulation of proliferation,"[4]; presence of tetracycline (without induced HES-1 expression), 17β-estradiol 10 nM",two-fold stimulation
same,stimulation of proliferation,[4]; two control cell lines with tetracycline-regulated vector lacking FLAG-HES-1,exhibited 17β-estradiol-stimulated proliferation
"C[C@]12CC[C@@H]3c4ccc(O)cc4C[C@@H](CCCCCCCCC[S+]([O-])CCCC(F)(F)C(F)(F)F)[C@H]3[C@@H]1CC[C@@H]2O (stereo partly drawn) [ICI 182,780]",effect on 17β-estradiol-mediated down regulation of HES-1 protein,[1],prevented
CC1=C(/C=C/C(C)=C/C=C/C(C)=C/C(=O)O)C(C)(C)CCC1 [all-trans retinoic acid],effect on 17β-estradiol-dependent down regulation of HES-1 expression,[5],inhibits
CCCC(=O)O.COc1cccc(C#CCON=C2CN3CCC2C3)c1 (stereo not drawn) [n-butyrate],CMV promoter activity,[6],induce
O=C(c1ccc(OCN2CCCCC2)cc1)c1c(-c2ccc(O)cc2)sc2cc(O)ccc12 [raloxifen],effect on 17β-estradiol-mediated down regulation of HES-1 protein,[1],prevented
CC(/C=C/C(=O)NO)=C\[C@@H](C)C(=O)c1ccc(N(C)C)cc1 [trichostatin A],17β-estradiol response on addition of TSA in combination with HES-1,[7],no significant difference
same,CMV promoter activity,[6],induce
same,makes 4OH tamoxifen into an effective agonist on ERE TATA LUC,[8]; COS-7 cells treated with 5 ng/ml trichostatin A for 8 hrs,same result
same,17β-estradiol response on addition of TSA together with HES-1,"[8]; COS-7 cells, ERα, FIG. 8",much larger response
